From patent US20260028596A1, “METHOD FOR PRODUCING HIGH YIELD AND HIGH QUALITY RECOMBINANT ADENO-[…]” (Aavatar Therapeutics Co.,Ltd., priority 2022, published 2026)

Legend:
[1] = tested on: Host cells capable of producing a recombinant adeno-associated virus of a AAV9 serotype (Expi293F cells); assay: Pre-culture treatment process: rAAV yield (total vg) of host cells; format: cell-based; conditions: pre-culture agent with PEI (1 mg/ml), Nocodazole 4 uM and/or M344 2.5 uM, 4 hours after transfection; osmotic shock after 4 days (FIG. 3)
Description: (§1) Expi293F cells (Cat #A14527, Thermo) were grown in Expi293 Expression Medium (Cat #A14351-02, Thermo) supplemented with 1% penicillin-streptomycin (Cat #15140122, Thermo). Then, the cells were maintained under serum-free suspension culture conditions. Herein, the serum-free suspension culture conditions were as follows: 120 rpm stirring rate in a shaker incubator (Cat #NB-206CL, N-biotek, South Korea); 37° C.; 8% CO2; and 85% relative humidity.
(§2) Expi293F cells were seeded in Expi293F expression media at a density of 2.5×10^6 cells per 1 mL and cultured for 3 hours. Then, the cells were transfected using 25-kDa linear PEI (Cat #23966-1, Polyscience, USA) along with the three plasmids (pHelper[Cat #112867, Addgene], pRC9n[Cat #112865, Addgene], and pAAV[Cat #105530, Addgene]), respectively. Specifically, the plasmids were mixed in DMEM (Cat #10569010, Thermo) at 1/10 the volume of cells to be transfected. Next, PEI was added to DNAs diluted in DMEM. After an additionally 20-minute culture, a DNA-PEI complex was added to the cells.
The following experiment was conducted to determine a yield improvement effect of the recombinant adeno-associated virus production process including the pre-culture treatment process depending on pre-culture treatment conditions: […]

[2] = tested on: Host cells capable of producing recombinant adeno-associated virus of the AAV9 serotype (Expi293F cells); assay: Osmotic shock process: viral genomes (vg) recovered from media of rAAV-producing host cells; format: cell-based; conditions: 0.5 M salt as osmotic shock reagent, added 4 days after transfection, 3 hours; vs negative control NT (FIG. 2)
Description: as §1, §2
The following experiment was conducted to determine a yield improvement effect of the recombinant adeno-associated virus production process including the osmotic shock process depending on osmotic shock conditions:
Host cells capable of producing recombinant adeno-associated virus of the AAV9 serotype were prepared according to Experimental Examples 1.1 to 1.3.
For each experimental group, 2.5×10^6 cells per mL were seeded in a 30 mL culture vessel, and experiments were conducted using a total of 16 culture vessels for each experimental group.
On the basis of the time of transfection of the recombinant adeno-associated virus expression plasmid into the host cells, an osmotic shock reagent was added 4 days later, the condition was maintained for 3 hours, sample media and/or cells were harvested, and the viral genome was (vg) counts were measured.

| Structure (SMILES) | yield of recombinant adeno-associated virus in the host cells [1] | number of viral genomes recovered from the media, by salt type [2] |
| --- | --- | --- |
| CN(C)c1ccc(C(=O)NCCCCCCC(=O)NO)cc1 [M344] | yield of recombinant adeno-associated virus in the host cells was increased | – |
| [Cl-].[K+] [KCl, potassium chloride] | – | significant increase in the number of viral genomes recovered from the media |
| COC(=O)Nc1nc2ccc(C(=O)c3cccs3)cc2[nH]1 [Nocodazole] | yield of recombinant adeno-associated virus in the host cells was increased | – |
| [Cl-].[Na+] [NaCl, sodium chloride] | – | significant increase in the number of viral genomes recovered from the media |
| [Cl-].[Cl-].[Mg+2] [MgCl2, magnesium chloride] | – | significant increase in the number of viral genomes recovered from the media |
